Experimental data from ChEMBL document CHEMBL1933051, “Cytotoxic bistetrahydrofuran annonaceous acetogenins from the seeds of Annona squamosa” (J Nat Prod, 2011).
≈ marks a conversion by molar mass, not a printed value.

tested on: A549; assay: Cytotoxicity against human A549 cells by MTT assay; assay type: functional, cell-based

First: CCCCCCCCCCCC(O)CCC[C@H](O)[C@H]1CC[C@H]([C@H]2CC[C@H]([C@H](O)CCCCCCCC3=C[C@H](C)OC3=O)O2)O1 (relative stereo)
Second: CCCCCCCCCC[C@@H](O)[C@H]1CC[C@H]([C@H]2CC[C@H]([C@H](O)CCCCCCCCC[C@H](O)CCC3=C[C@H](C)OC3=O)O2)O1 [UVARIGRANDIN A]
The IC50 of the first is 6.7-fold lower: 0.012 µg/mL (≈ 0.0193 µM) for the first, 0.08 µg/mL (≈ 0.128 µM) for the second.

Going from `CCCC[C@H](O)[C@H](O)[C@@H]1CC[C@@H]([C@H](O)CC[C@H](O)[C@@H]2CC[C@@H](CCCCCCCCCCCCCCC3=C[C@H](C)OC3=O)O2)O1` (relative stereo) to `CCCCCCCCCC[C@H](O)[C@@H]1CC[C@@H]([C@H](O)CC[C@@H](O)[C@@H]2CC[C@@H](CCCCCCCCCC3=C[C@@H](C)OC3=O)O2)O1` [Squamostatin-D], the IC50 falls from 0.31 µg/mL (≈ 0.485 µM) to 0.046 µg/mL (≈ 0.0738 µM) (6.7-fold).

Going from `CCCCC[C@H](O)[C@@H]1CC[C@@H]([C@H](O)CC[C@H](O)[C@@H]2CC[C@@H](CCCCCCCCCCCC[C@@H](O)CC3=C[C@H](C)OC3=O)O2)O1` (relative stereo) to `CCCCCC[C@@H](O)CCC[C@H](O)[C@@H]1CC[C@@H]([C@H](O)CC[C@@H](O)[C@@H]2CC[C@@H](CCCCCCCCCC3=C[C@@H](C)OC3=O)O2)O1` [Squamostatin-A], the IC50 falls from 0.68 µg/mL (≈ 1.06 µM) to 0.21 µg/mL (≈ 0.329 µM) (3.2-fold).

First: CCCCCCCCCC[C@@H](O)[C@@H]1CC[C@@H]([C@@H]2CC[C@@H]([C@H](O)CCCCCCCCCC(O)CC3=CC(C)OC3=O)O2)O1 (stereo partly drawn) [BULLATACIN]
Second: O=c1[nH]cc(F)c(=O)[nH]1 [FLUOROURACIL]
The IC50 of the first is 9.7-fold lower: 0.033 µg/mL (≈ 0.0542 µM) for the first, 0.32 µg/mL (≈ 2.46 µM) for the second.

tested on: HeLa; assay: Cytotoxicity against human HeLa cells by MTT assay; assay type: functional, cell-based

Compared with `CCCCCCCCCCCC(O)CCC[C@H](O)[C@H]1CC[C@H]([C@H]2CC[C@H]([C@H](O)CCCCCCCC3=C[C@H](C)OC3=O)O2)O1` (relative stereo), `CCCCCCCCCC[C@@H](O)[C@H]1CC[C@H]([C@H]2CC[C@H]([C@H](O)CCCCCCCCC[C@H](O)CCC3=C[C@H](C)OC3=O)O2)O1` [UVARIGRANDIN A] is 2.8-fold higher in IC50: 0.025 µg/mL (≈ 0.0401 µM) for the first, 0.07 µg/mL (≈ 0.112 µM) for the second.

First: CCCC[C@H](O)[C@H](O)[C@@H]1CC[C@@H]([C@H](O)CC[C@H](O)[C@@H]2CC[C@@H](CCCCCCCCCCCCCCC3=C[C@H](C)OC3=O)O2)O1 (relative stereo)
Second: CCCCCCCCCC[C@H](O)[C@@H]1CC[C@@H]([C@H](O)CC[C@@H](O)[C@@H]2CC[C@@H](CCCCCCCCCC3=C[C@@H](C)OC3=O)O2)O1 [Squamostatin-D]
The IC50 of the first is 5.7-fold higher: 0.57 µg/mL (≈ 0.892 µM) for the first, 0.1 µg/mL (≈ 0.161 µM) for the second.

Going from `CCCCC[C@H](O)[C@@H]1CC[C@@H]([C@H](O)CC[C@H](O)[C@@H]2CC[C@@H](CCCCCCCCCCCC[C@@H](O)CC3=C[C@H](C)OC3=O)O2)O1` (relative stereo) to `CCCCCC[C@@H](O)CCC[C@H](O)[C@@H]1CC[C@@H]([C@H](O)CC[C@@H](O)[C@@H]2CC[C@@H](CCCCCCCCCC3=C[C@@H](C)OC3=O)O2)O1` [Squamostatin-A], the IC50 falls from 1.5 µg/mL (≈ 2.35 µM) to 0.45 µg/mL (≈ 0.704 µM) (3.3-fold).

Compared with `CCCCCCCCCC[C@@H](O)[C@@H]1CC[C@@H]([C@@H]2CC[C@@H]([C@H](O)CCCCCCCCCC(O)CC3=CC(C)OC3=O)O2)O1` (stereo partly drawn) [BULLATACIN], `O=c1[nH]cc(F)c(=O)[nH]1` [FLUOROURACIL] is 4.1-fold higher in IC50: 0.034 µg/mL (≈ 0.0558 µM) for the first, 0.14 µg/mL (≈ 1.08 µM) for the second.

tested on: MCF7; assay: Cytotoxicity against human MCF7 cells by MTT assay; assay type: functional, cell-based

Compared with `CCCCCCCCCCCC(O)CCC[C@H](O)[C@H]1CC[C@H]([C@H]2CC[C@H]([C@H](O)CCCCCCCC3=C[C@H](C)OC3=O)O2)O1` (relative stereo), `CCCCCCCCCC[C@@H](O)[C@H]1CC[C@H]([C@H]2CC[C@H]([C@H](O)CCCCCCCCC[C@H](O)CCC3=C[C@H](C)OC3=O)O2)O1` [UVARIGRANDIN A] is 1.8-fold higher in IC50: 0.052 µg/mL (≈ 0.0835 µM) for the first, 0.096 µg/mL (≈ 0.154 µM) for the second.

First: CCCC[C@H](O)[C@H](O)[C@@H]1CC[C@@H]([C@H](O)CC[C@H](O)[C@@H]2CC[C@@H](CCCCCCCCCCCCCCC3=C[C@H](C)OC3=O)O2)O1 (relative stereo)
Second: CCCCCCCCCC[C@H](O)[C@@H]1CC[C@@H]([C@H](O)CC[C@@H](O)[C@@H]2CC[C@@H](CCCCCCCCCC3=C[C@@H](C)OC3=O)O2)O1 [Squamostatin-D]
The IC50 of the first is 4.5-fold higher: 0.5 µg/mL (≈ 0.783 µM) for the first, 0.11 µg/mL (≈ 0.177 µM) for the second.

Going from `CCCCC[C@H](O)[C@@H]1CC[C@@H]([C@H](O)CC[C@H](O)[C@@H]2CC[C@@H](CCCCCCCCCCCC[C@@H](O)CC3=C[C@H](C)OC3=O)O2)O1` (relative stereo) to `CCCCCC[C@@H](O)CCC[C@H](O)[C@@H]1CC[C@@H]([C@H](O)CC[C@@H](O)[C@@H]2CC[C@@H](CCCCCCCCCC3=C[C@@H](C)OC3=O)O2)O1` [Squamostatin-A], the IC50 falls from 0.75 µg/mL (≈ 1.17 µM) to 0.15 µg/mL (≈ 0.235 µM) (5-fold).

Compared with `CCCCCCCCCC[C@@H](O)[C@@H]1CC[C@@H]([C@@H]2CC[C@@H]([C@H](O)CCCCCCCCCC(O)CC3=CC(C)OC3=O)O2)O1` (stereo partly drawn) [BULLATACIN], `O=c1[nH]cc(F)c(=O)[nH]1` [FLUOROURACIL] is 5.1-fold higher in IC50: 0.043 µg/mL (≈ 0.0706 µM) for the first, 0.22 µg/mL (≈ 1.69 µM) for the second.

tested on: HepG2; assay: Cytotoxicity against human HepG2 cells by MTT assay; assay type: functional, cell-based

First: CCCCCCCCCCCC(O)CCC[C@H](O)[C@H]1CC[C@H]([C@H]2CC[C@H]([C@H](O)CCCCCCCC3=C[C@H](C)OC3=O)O2)O1 (relative stereo)
Second: CCCCCCCCCC[C@@H](O)[C@H]1CC[C@H]([C@H]2CC[C@H]([C@H](O)CCCCCCCCC[C@H](O)CCC3=C[C@H](C)OC3=O)O2)O1 [UVARIGRANDIN A]
The IC50 of the first is 35-fold lower: 0.022 µg/mL (≈ 0.0353 µM) for the first, 0.78 µg/mL (≈ 1.25 µM) for the second.

Going from `CCCC[C@H](O)[C@H](O)[C@@H]1CC[C@@H]([C@H](O)CC[C@H](O)[C@@H]2CC[C@@H](CCCCCCCCCCCCCCC3=C[C@H](C)OC3=O)O2)O1` (relative stereo) to `CCCCCCCCCC[C@H](O)[C@@H]1CC[C@@H]([C@H](O)CC[C@@H](O)[C@@H]2CC[C@@H](CCCCCCCCCC3=C[C@@H](C)OC3=O)O2)O1` [Squamostatin-D], the IC50 rises from 0.17 µg/mL (≈ 0.266 µM) to 0.56 µg/mL (≈ 0.899 µM) (3.3-fold).

`CCCCC[C@H](O)[C@@H]1CC[C@@H]([C@H](O)CC[C@H](O)[C@@H]2CC[C@@H](CCCCCCCCCCCC[C@@H](O)CC3=C[C@H](C)OC3=O)O2)O1` (relative stereo) and `CCCCCC[C@@H](O)CCC[C@H](O)[C@@H]1CC[C@@H]([C@H](O)CC[C@@H](O)[C@@H]2CC[C@@H](CCCCCCCCCC3=C[C@@H](C)OC3=O)O2)O1` [Squamostatin-A] are within 1.5-fold of each other in IC50: 0.8 µg/mL (≈ 1.25 µM) for the first, 0.83 µg/mL (≈ 1.3 µM) for the second.

Compared with `CCCCCCCCCC[C@@H](O)[C@@H]1CC[C@@H]([C@@H]2CC[C@@H]([C@H](O)CCCCCCCCCC(O)CC3=CC(C)OC3=O)O2)O1` (stereo partly drawn) [BULLATACIN], `O=c1[nH]cc(F)c(=O)[nH]1` [FLUOROURACIL] is 3.9-fold lower in IC50: 0.032 µg/mL (≈ 0.0526 µM) for the first, 0.0082 µg/mL (≈ 0.063 µM) for the second.

tested on: SMMC-7721; assay: Cytotoxicity against human SMMC7721 cells by MTT assay; assay type: functional, cell-based

Compared with `CCCCCCCCCCCC(O)CCC[C@H](O)[C@H]1CC[C@H]([C@H]2CC[C@H]([C@H](O)CCCCCCCC3=C[C@H](C)OC3=O)O2)O1` (relative stereo), `CCCCCCCCCC[C@@H](O)[C@H]1CC[C@H]([C@H]2CC[C@H]([C@H](O)CCCCCCCCC[C@H](O)CCC3=C[C@H](C)OC3=O)O2)O1` [UVARIGRANDIN A] is 20-fold lower in IC50: 0.057 µg/mL (≈ 0.0915 µM) for the first, 0.0029 µg/mL (≈ 0.00466 µM) for the second.

Going from `CCCC[C@H](O)[C@H](O)[C@@H]1CC[C@@H]([C@H](O)CC[C@H](O)[C@@H]2CC[C@@H](CCCCCCCCCCCCCCC3=C[C@H](C)OC3=O)O2)O1` (relative stereo) to `CCCCCCCCCC[C@H](O)[C@@H]1CC[C@@H]([C@H](O)CC[C@@H](O)[C@@H]2CC[C@@H](CCCCCCCCCC3=C[C@@H](C)OC3=O)O2)O1` [Squamostatin-D], the IC50 rises from 0.11 µg/mL (≈ 0.172 µM) to 0.25 µg/mL (≈ 0.401 µM) (2.3-fold).

`CCCCC[C@H](O)[C@@H]1CC[C@@H]([C@H](O)CC[C@H](O)[C@@H]2CC[C@@H](CCCCCCCCCCCC[C@@H](O)CC3=C[C@H](C)OC3=O)O2)O1` (relative stereo) and `CCCCCC[C@@H](O)CCC[C@H](O)[C@@H]1CC[C@@H]([C@H](O)CC[C@@H](O)[C@@H]2CC[C@@H](CCCCCCCCCC3=C[C@@H](C)OC3=O)O2)O1` [Squamostatin-A] are within 1.5-fold of each other in IC50: 0.39 µg/mL (≈ 0.61 µM) for the first, 0.49 µg/mL (≈ 0.767 µM) for the second.

First: CCCCCCCCCC[C@@H](O)[C@@H]1CC[C@@H]([C@@H]2CC[C@@H]([C@H](O)CCCCCCCCCC(O)CC3=CC(C)OC3=O)O2)O1 (stereo partly drawn) [BULLATACIN]
Second: O=c1[nH]cc(F)c(=O)[nH]1 [FLUOROURACIL]
The IC50 of the first is 4.8-fold lower: 0.0048 µg/mL (≈ 0.00788 µM) for the first, 0.023 µg/mL (≈ 0.177 µM) for the second.

tested on: MKN-45; assay: Cytotoxicity against human MKN45 cells by MTT assay; assay type: functional, cell-based

First: CCCCCCCCCCCC(O)CCC[C@H](O)[C@H]1CC[C@H]([C@H]2CC[C@H]([C@H](O)CCCCCCCC3=C[C@H](C)OC3=O)O2)O1 (relative stereo)
Second: CCCCCCCCCC[C@@H](O)[C@H]1CC[C@H]([C@H]2CC[C@H]([C@H](O)CCCCCCCCC[C@H](O)CCC3=C[C@H](C)OC3=O)O2)O1 [UVARIGRANDIN A]
The IC50 of the first is 1.6-fold lower: 0.042 µg/mL (≈ 0.0674 µM) for the first, 0.069 µg/mL (≈ 0.111 µM) for the second.

Going from `CCCC[C@H](O)[C@H](O)[C@@H]1CC[C@@H]([C@H](O)CC[C@H](O)[C@@H]2CC[C@@H](CCCCCCCCCCCCCCC3=C[C@H](C)OC3=O)O2)O1` (relative stereo) to `CCCCCCCCCC[C@H](O)[C@@H]1CC[C@@H]([C@H](O)CC[C@@H](O)[C@@H]2CC[C@@H](CCCCCCCCCC3=C[C@@H](C)OC3=O)O2)O1` [Squamostatin-D], the IC50 rises from 0.14 µg/mL (≈ 0.219 µM) to 0.87 µg/mL (≈ 1.4 µM) (6.2-fold).

Compared with `CCCCC[C@H](O)[C@@H]1CC[C@@H]([C@H](O)CC[C@H](O)[C@@H]2CC[C@@H](CCCCCCCCCCCC[C@@H](O)CC3=C[C@H](C)OC3=O)O2)O1` (relative stereo), `CCCCCC[C@@H](O)CCC[C@H](O)[C@@H]1CC[C@@H]([C@H](O)CC[C@@H](O)[C@@H]2CC[C@@H](CCCCCCCCCC3=C[C@@H](C)OC3=O)O2)O1` [Squamostatin-A] is 1.6-fold higher in IC50: 0.59 µg/mL (≈ 0.923 µM) for the first, 0.93 µg/mL (≈ 1.46 µM) for the second.

First: CCCCCCCCCC[C@@H](O)[C@@H]1CC[C@@H]([C@@H]2CC[C@@H]([C@H](O)CCCCCCCCCC(O)CC3=CC(C)OC3=O)O2)O1 (stereo partly drawn) [BULLATACIN]
Second: O=c1[nH]cc(F)c(=O)[nH]1 [FLUOROURACIL]
The IC50 of the first is 6.8-fold lower: 0.053 µg/mL (≈ 0.087 µM) for the first, 0.36 µg/mL (≈ 2.77 µM) for the second.
